Results reported in patent US5843948A, “Piperazinophenyl- and piperazinophenyloxycarboxylic acid derivatives, and processes and intermediates for their preparation and pharmaceutical compositions comprising them” (Solvay Pharmaceuticals GmbH, priority 1996, dated 1998).

The compounds below were run against T1, purified GP IIb/IIIa fibrinogen receptor from human blood platelets (Homo sapiens, UniProt P05106+P08514) (assay: Inhibition of fibrinogen binding to GP IIb/IIIa, solid phase enzyme immunoassay of the ELISA type (Kouns et al.)). Conditions: purified human plasma fibrinogen 20 μg/ml, 37° C., 2 hours, read-out: pIC50 (negative common logarithm of the IC50 for inhibition of the specific fibrinogen binding of GP IIb/IIIa) (converted).
T1 construct: purified GP IIb/IIIa fibrinogen receptor from human blood platelets; from tissue; host or cells: human blood platelets
T1 sequence (P08514 32-887 limits assumed): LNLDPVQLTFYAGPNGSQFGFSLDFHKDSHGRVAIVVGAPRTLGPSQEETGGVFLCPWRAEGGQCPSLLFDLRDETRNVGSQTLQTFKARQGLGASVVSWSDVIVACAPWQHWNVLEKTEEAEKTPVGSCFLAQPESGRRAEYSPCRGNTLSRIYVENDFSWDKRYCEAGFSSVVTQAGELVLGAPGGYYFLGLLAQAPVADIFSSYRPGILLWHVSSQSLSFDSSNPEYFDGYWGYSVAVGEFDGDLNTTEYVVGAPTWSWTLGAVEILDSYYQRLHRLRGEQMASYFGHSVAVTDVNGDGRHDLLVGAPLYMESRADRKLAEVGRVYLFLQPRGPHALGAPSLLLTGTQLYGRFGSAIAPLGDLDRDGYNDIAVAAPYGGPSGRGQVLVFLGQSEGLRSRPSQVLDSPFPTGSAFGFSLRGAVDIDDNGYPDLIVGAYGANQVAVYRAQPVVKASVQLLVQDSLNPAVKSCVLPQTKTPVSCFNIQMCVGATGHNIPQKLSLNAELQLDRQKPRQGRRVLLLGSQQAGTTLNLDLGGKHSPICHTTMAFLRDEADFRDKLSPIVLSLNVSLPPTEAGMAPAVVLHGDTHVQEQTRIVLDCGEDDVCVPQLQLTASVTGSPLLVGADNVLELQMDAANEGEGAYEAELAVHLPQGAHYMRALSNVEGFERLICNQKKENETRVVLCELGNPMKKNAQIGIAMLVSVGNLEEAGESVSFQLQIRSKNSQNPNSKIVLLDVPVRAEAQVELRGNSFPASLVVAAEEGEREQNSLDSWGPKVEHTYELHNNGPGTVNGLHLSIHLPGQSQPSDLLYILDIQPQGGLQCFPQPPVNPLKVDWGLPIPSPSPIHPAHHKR
T1 sequence (P08514 891-1039 limits assumed): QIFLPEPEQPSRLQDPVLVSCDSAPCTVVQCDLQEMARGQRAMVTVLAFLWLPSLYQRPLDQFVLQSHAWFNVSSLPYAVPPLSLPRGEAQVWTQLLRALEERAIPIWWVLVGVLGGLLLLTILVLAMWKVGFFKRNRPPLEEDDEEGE
T1 sequence (P05106 27-788): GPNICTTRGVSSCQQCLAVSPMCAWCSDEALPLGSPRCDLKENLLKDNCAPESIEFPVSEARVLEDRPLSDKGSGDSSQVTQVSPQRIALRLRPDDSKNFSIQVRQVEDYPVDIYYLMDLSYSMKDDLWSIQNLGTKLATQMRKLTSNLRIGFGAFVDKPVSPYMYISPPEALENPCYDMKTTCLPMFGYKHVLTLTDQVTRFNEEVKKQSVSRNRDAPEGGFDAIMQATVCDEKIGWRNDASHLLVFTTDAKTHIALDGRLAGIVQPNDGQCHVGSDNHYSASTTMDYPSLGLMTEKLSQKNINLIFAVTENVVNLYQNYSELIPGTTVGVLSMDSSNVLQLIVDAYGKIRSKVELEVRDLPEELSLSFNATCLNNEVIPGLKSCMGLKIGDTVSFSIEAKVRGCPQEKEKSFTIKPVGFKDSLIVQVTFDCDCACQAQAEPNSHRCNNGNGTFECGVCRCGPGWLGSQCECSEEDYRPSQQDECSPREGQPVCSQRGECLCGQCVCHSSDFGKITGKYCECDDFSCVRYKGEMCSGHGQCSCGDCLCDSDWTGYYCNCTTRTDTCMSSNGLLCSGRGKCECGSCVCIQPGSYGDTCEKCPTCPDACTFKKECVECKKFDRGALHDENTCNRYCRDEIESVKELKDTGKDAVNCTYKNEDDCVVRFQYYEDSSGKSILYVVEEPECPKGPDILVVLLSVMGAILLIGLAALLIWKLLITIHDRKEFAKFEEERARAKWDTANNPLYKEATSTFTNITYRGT
Experimental: The inhibitory action of the substances of the formula I on the fibrinogen binding to the fibrinogen receptor of the blood platelets, the GP IIb/IIIa, was detected in a solid phase enzyme immunoassay of the ELISA type ("Enzyme-Linked Immunosorbent Assay") according to the method described by Kouns et al. (Blood 80 (1992) 2539-2547).
A solution of purified GP IIb/IIIa fibrinogen receptor from human blood platelets (1 μg/ml in phosphate-buffered physiological saline solution, pH 7.4) was applied in portions of 100 μl/sample position to a microtitre plate and allowed to stand at 4° C. for 18 hours. Excess receptor reagent was washed off by a standard wash (3 times 350 μl of wash buffer solution/sample position: 0.01% (v/v) Tween 80 in phosphate-buffered physiological saline solution) and unoccupied residual protein binding sites were occupied by a blocking reagent [300 μl/sample position of an aqueous receptor buffer solution: 20 mmole/liter of tris(hydroxymethyl)aminomethane, 150 mmole/liter of NaCl, 1 mmole/liter of MgCl2, 1 mmole/liter of CaCl2; treated with 5% (w/v) bovine serum albumin (BSA)]. The mixture was incubated at 37° C. for 2 hours and excess blocking reagent was removed.
Purified human plasma fibrinogen [100 μl/sample position of a 20 μg/ml solution in test buffer. Test buffer=receptor buffer mixed with 1% (w/v) BSA] was then added together with the test substance dissolved therein (concentration dependent on the test substance) and incubated at 37° C. for 2 hours. Unbound fibrinogen was removed by standard washing and the incubation was continued for a further hour at room temperature after addition of biotinylated rabbit antibodies against human fibrinogen (100 μl/sample position in optimum use dilution, dissolved in test buffer) . After a further standard wash, horseradish peroxidase-conjugated streptavidin (1:2000, in suitable dilution in test buffer) was added, and the mixture was incubated again at room temperature for one hour, followed by a further standard wash.
Finally, the peroxidase substrate 2,2'-azinodi-(3-ethylbenzothiazolinesulfonate) (abbreviated below as ABTS), (100 μl/sample position of a solution of 0.4 g/liter of ABTS in 0.1 mole/liter of citric acid buffer, adjusted to pH 4 using 0.4 mole/liter of NaH2 PO4 ·2 H2 O), treated with 0.003% (w/v) hydrogen peroxide, was added and the extinction of the mixture was measured at 405 nm at 5 minute intervals for twenty minutes.
The peroxidase activity was determined from the measurements as the increase in the extinction with time. It was used to calculate the total fibrinogen binding and also the non-specific fibrinogen binding. The non-specific fibrinogen binding was determined without addition of the GP IIb/IIIa. The specific fibrinogen binding could be calculated from these two values. The effect of the test substances was expressed in IC50 values, which were obtained by interpolation from concentration-dependent measuring curves. The IC50 is that concentration in μmole/liter at which a test substance inhibits the specific fibrinogen binding of GP IIb/IIIa by 50%. The following Table 1 presents the IC50 values found for the test substance as negative common logarithms, the pIC50 values. The example numbers relate to the subsequent preparation examples.
Work on `N=C(N)c1ccc(N2CCN(c3ccc(OCC(=O)O)cc3)CC2)cc1` [Example 2a, 4-[4-(4-Amidinophenyl)-1-piperazinyl]-phenoxyacetic acid] yielded an IC50 of 1.58 nM. In the case of `N=C(N)c1ccc(N2CCN(c3ccc(OCC(=O)O)cc3)CC2)nc1` [Example 6, 4-{4-[2-(5-Amidinopyridyl)]-1-piperazinyl}-phenoxyacetic acid], the IC50 is reported as 1.55 nM. `COC(=O)COc1ccc(N2CCN(c3ccc(C(=N)N)cn3)CC2)cc1` [Example 7, Methyl 4-{4-[2-(5-amidinopyridyl)]-1-piperazinyl}phenoxyacetate] showed an IC50 of 36.3 nM. Compound `N=C(N)c1ccc(N2CCN(c3ccc(CCC(=O)O)cc3)CC2)nc1` [Example 10, 3-{4-[4-(2-(5-Amidinopyridyl))-1-piperazinyl]-phenyl}propionic acid] has an IC50 of 30.2 nM. For `N=C(N)c1ccc(N2CCN(c3ccc(CCC(=O)O)cc3)CC2)cc1` [Example 12], the IC50 was 28.2 nM.
